{"source": "ChEMBL document CHEMBL1138157", "about": "“Immuno-suppressive effect of blocking the CD28 signaling pathway in T-cells by an active component of Echinacea found by a novel pharmaceutical screening method” (2006)", "key": {"Jurkat [1]": {"tested_on": "Jurkat", "test": "Inhibition of PMA plus ionomycin-induced IL2 secretion in Jurkat cells", "type": "functional, cell-based", "settings": "Homo sapiens"}, "Jurkat [2]": {"tested_on": "Jurkat", "test": "Cytotoxic activity against Jurkat cells upto 500 ug/mL by MTT assay", "type": "functional, cell-based", "settings": "Homo sapiens"}, "Jurkat [3]": {"tested_on": "Jurkat", "test": "Inhibition of anti-CD3 plus anti-CD28-induced IL2 secretion in Jurkat cells", "type": "functional, Homo sapiens"}}, "note": "The source made the active and inactive calls. The calls are words filed in the database; no cut-off is given here."}
{"smiles": "O=C(/C=C/c1ccc(O)c(O)c1)O[C@@H]1C[C@@](OC(=O)/C=C/c2ccc(O)c(O)c2)(C(=O)O)C[C@@H](O)[C@@H]1O", "note": "[CYNARIN]", "values": [{"measurement": "Activity", "setting": "Jurkat [1]", "value": "inactive"}, {"measurement": "Activity", "setting": "Jurkat [2]", "value": "Non-toxic"}, {"measurement": "Inhibition", "setting": "Jurkat [3]", "value": -53, "unit": "%"}]}
